In patent US11912686B2 (Gilead Sciences, Inc., priority 2020, dated 2024):

These compounds were tested against human LPAR1 (Homo sapiens (Human), UniProt Q92633) (assay: LPAR1 intracellular calcium mobilization assay (antagonist mode, FLIPR)). Conditions: CHO-K1 EDG2 cells expressing human LPAR1, LPA 18:2 at EC80 (100 nM), test compound 0.5 nM to 10 μM.
Format: cell-based

Chain of human LPAR1 (Q92633 whole entry): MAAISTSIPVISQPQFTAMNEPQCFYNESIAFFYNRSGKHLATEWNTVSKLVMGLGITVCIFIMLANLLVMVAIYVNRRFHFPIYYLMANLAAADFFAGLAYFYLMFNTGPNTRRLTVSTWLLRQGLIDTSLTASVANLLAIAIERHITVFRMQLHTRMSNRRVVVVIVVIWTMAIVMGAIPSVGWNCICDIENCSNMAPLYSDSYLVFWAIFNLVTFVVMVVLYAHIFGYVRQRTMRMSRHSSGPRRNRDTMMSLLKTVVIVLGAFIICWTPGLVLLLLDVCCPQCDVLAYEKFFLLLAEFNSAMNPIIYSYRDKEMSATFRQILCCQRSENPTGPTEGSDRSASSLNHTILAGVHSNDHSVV

`C[C@@H](OC(=O)Nc1c(-c2ccc(NC(=O)[C@H]3C[C@@H]3C)cn2)nnn1C)c1cc(F)cnc1F` (mixture of isomers) [Compound 207, (R)-1-(2,5-difluoropyridin-3-yl)ethyl (1-methyl-4-(5-((1RS,2RS)-2-methylcyclopropane-1-carboxamido)pyridin-2-yl)-1H-1,2,3-triazol-5-yl)carbamate] was tested. Which EC50 did it give?
Its EC50 is 41.2 nM.

For `C[C@@H](OC(=O)Nc1c(-c2ccc(NC(=O)[C@@H]3C[C@H]3CF)cn2)nnn1C)c1cc(F)cnc1F` (mixture of isomers) [Compound 208, (R)-1-(2,5-difluoropyridin-3-yl)ethyl (4-(5-((1RS,2RS)-2-(fluoromethyl)cyclopropane-1-carboxamido)pyridin-2-yl)-1-methyl-1H-1,2,3-triazol-5-yl)carbamate], which EC50 is on record?
Its EC50 is 21.1 nM.

For `C[C@@H](OC(=O)Nc1c(-c2ccc(NC(=O)[C@@H]3C[C@H]3C(F)(F)F)cn2)nnn1C)c1cc(F)cnc1F` (mixture of isomers) [Compound 209, (R)-1-(2,5-difluoropyridin-3-yl)ethyl (1-methyl-4-(5-((1RS,2RS)-2-(trifluoromethyl)cyclopropane-1-carboxamido)pyridin-2-yl)-1H-1,2,3-triazol-5-yl)carbamate], which EC50 is on record?
The EC50 was 17.7 nM.

For `CO[C@@H]1C[C@H]1C(=O)Nc1ccc(-c2nnn(C)c2NC(=O)O[C@H](C)c2cc(F)cnc2F)nc1` (mixture of isomers) [Compound 210, (R)-1-(2,5-difluoropyridin-3-yl)ethyl (4-(5-((1RS,2RS)-2-methoxycyclopropane-1-carboxamido)pyridin-2-yl)-1-methyl-1H-1,2,3-triazol-5-yl)carbamate], which EC50 is on record?
Its EC50 is 243 nM.

Which EC50 does the source give for `C[C@@H](OC(=O)Nc1c(-c2ccc(NC(=O)[C@@H]3C[C@H]3[N+](=O)[O-])cn2)nnn1C)c1cc(F)cnc1F` (mixture of isomers) [Compound 211, (R)-1-(2,5-difluoropyridin-3-yl)ethyl (1-methyl-4-(5-((1RS,2RS)-2-nitrocyclopropane-1-carboxamido)pyridin-2-yl)-1H-1,2,3-triazol-5-yl)carbamate] here?
The EC50 was 37.4 nM.

For `C[C@@H](OC(=O)Nc1c(-c2ccc(NC(=O)[C@@H]3C[C@H]3C(F)F)cn2)nnn1C)c1cc(F)cnc1F` (mixture of isomers) [Compound 216, (R)-1-(2,5-difluoropyridin-3-yl)ethyl (4-(5-((1RS,2RS)-2-(difluoromethyl)cyclopropane-1-carboxamido)pyridin-2-yl)-1-methyl-1H-1,2,3-triazol-5-yl)carbamate], which EC50 is on record?
Its EC50 is 22.4 nM.

For `C[C@@H](OC(=O)Nc1c(-c2ccc(NC(=O)[C@@H]3C[C@H]3c3ccncc3)cn2)nnn1C)c1cc(F)cnc1F` (mixture of isomers) [Compound 217, (R)-1-(2,5-difluoropyridin-3-yl)ethyl (1-methyl-4-(5-((1RS,2RS)-2-(pyridin-4-yl)cyclopropane-1-carboxamido)pyridin-2-yl)-1H-1,2,3-triazol-5-yl)carbamate], which EC50 is on record?
Its EC50 is 58.1 nM.

With `C[C@@H](OC(=O)Nc1c(-c2ccc(NC(=O)[C@@H]3C[C@H]3c3ccc(F)nc3)cn2)nnn1C)c1cc(F)cnc1F` (mixture of isomers) [Compound 237, (R)-1-(2,5-difluoropyridin-3-yl)ethyl (4-(5-((1RS,2RS)-2-(6-fluoropyridin-3-yl)cyclopropane-1-carboxamido)pyridin-2-yl)-1-methyl-1H-1,2,3-triazol-5-yl)carbamate] as the compound, how does the EC50 read?
Its EC50 is 19.3 nM.

With `C[C@@H](OC(=O)Nc1c(-c2ccc(NC(=O)[C@@H]3C[C@H]3c3ccncc3Cl)cn2)nnn1C)c1cc(F)cnc1F` (mixture of isomers) [Compound 238, (R)-1-(2,5-difluoropyridin-3-yl)ethyl (4-(5-((1RS,2RS)-2-(3-chloropyridin-4-yl)cyclopropane-1-carboxamido)pyridin-2-yl)-1-methyl-1H-1,2,3-triazol-5-yl)carbamate] as the compound, how does the EC50 read?
The EC50 was 52.5 nM.

For `C[C@@H](OC(=O)Nc1c(-c2ccc(NC(=O)[C@H]3[C@H](c4ccccc4)C3(F)F)cn2)nnn1C)c1cc(F)cnc1F` (mixture of isomers) [Compound 247, (R)-1-(2,5-difluoropyridin-3-yl)ethyl (4-(5-((1RS,3RS)-2,2-difluoro-3-phenylcyclopropane-1-carboxamido)pyridin-2-yl)-1-methyl-1H-1,2,3-triazol-5-yl)carbamate], which EC50 is on record?
Its EC50 is 13 nM.

`C[C@@H](OC(=O)Nc1c(-c2ccc(NC(=O)[C@H]3[C@H](C4CC4)C3(F)F)cn2)nnn1C)c1cc(F)cnc1F` (mixture of isomers) [Compound 248, (R)-1-(2,5-difluoropyridin-3-yl)ethyl (4-(5-((1RS,2SR)-3,3-difluoro-[1,1′-bi(cyclopropane)]-2-carboxamido)pyridin-2-yl)-1-methyl-1H-1,2,3-triazol-5-yl)carbamate] was tested. Which EC50 did it give?
The EC50 was 29.8 nM.

Which EC50 does the source give for `C[C@@H](OC(=O)Nc1c(-c2ccc(NC(=O)[C@@H]3C[C@H]3C#N)cn2)nnn1C)c1cc(F)cnc1Cl` (mixture of isomers) [Compound 285, (R)-1-(2-chloro-5-fluoropyridin-3-yl)ethyl (4-(5-((1RS,2RS)-2-cyanocyclopropane-1-carboxamido)pyridin-2-yl)-1-methyl-1H-1,2,3-triazol-5-yl)carbamate] here?
Its EC50 is 71.8 nM.

Which EC50 does the source give for `C[C@@H](OC(=O)Nc1c(-c2ccc(NC(=O)[C@H]3[C@@H]4CS(=O)(=O)C[C@@H]43)cn2)nnn1C)c1cc(F)cnc1F` (racemic) [Compound 229, (R)-1-(2,5-difluoropyridin-3-yl)ethyl (4-(5-((1RS,5SR,6SR)-3,3-dioxido-3-thiabicyclo[3.1.0]hexane-6-carboxamido)pyridin-2-yl)-1-methyl-1H-1,2,3-triazol-5-yl)carbamate] here?
Its EC50 is 864 nM.

For `C[C@@H](OC(=O)Nc1c(-c2ccc(NC(=O)[C@H]3[C@@H]4CC(F)(F)C[C@@H]43)cn2)nnn1C)c1cc(F)cnc1F` (racemic) [Compound 230, (R)-1-(2,5-difluoropyridin-3-yl)ethyl (4-(5-((1RS,5SR,6SR)-3,3-difluorobicyclo[3.1.0]hexane-6-carboxamido)pyridin-2-yl)-1-methyl-1H-1,2,3-triazol-5-yl)carbamate], which EC50 is on record?
Its EC50 is 26.7 nM.

How did the EC50 turn out when `C[C@@H](OC(=O)Nc1c(-c2ccc(NC(=O)C(F)(F)F)cc2)nnn1C)c1cccc(F)c1` [Compound 1, (R)-1-(3-fluorophenyl)ethyl (1-methyl-4-(4-(2,2,2-trifluoroacetamido)phenyl)-1H-1,2,3-triazol-5-yl)carbamate] was run?
Its EC50 is 6520 nM.

For `C[C@@H](OC(=O)Nc1c(-c2ncc(NC(=O)C3(C#N)CC3)cn2)nnn1C)c1cccnc1Cl` [Compound 2, [(1R)-1-(2-chloro-3-pyridyl)ethyl] N-[5-[5-[(1-cyanocyclopropanecarbonyl)amino]pyrimidin-2-yl]-3-methyl-triazol-4-yl]carbamate], which EC50 is on record?
Its EC50 is 953 nM.

How did the EC50 turn out when `CNC(=O)Nc1ccc(-c2nnn(C)c2NC(=O)O[C@H](C)c2ccccc2Cl)cn1` [Compound 3] was run?
Its EC50 is 10000 nM.

With `CC(=O)Nc1ccc(-c2nnn(C)c2NC(=O)O[C@H](C)c2cccnc2Cl)nc1F` [Compound 5, [(1R)-1-(2-chloro-3-pyridyl)ethyl] N-[5-(5-acetamido-6-fluoro-2-pyridyl)-3-methyl-triazol-4-yl]carbamate] as the compound, how does the EC50 read?
Its EC50 is 1510 nM.

Which EC50 does the source give for `CC(=O)Nc1ccc(-c2nnn(C)c2NC(=O)O[C@H](C)c2cccnc2Cl)cc1` [Compound 6, (R)-1-(2-chloropyridin-3-yl)ethyl (4-(4-acetamidophenyl)-1-methyl-1H-1,2,3-triazol-5-yl)carbamate] here?
Its EC50 is 1860 nM.

How did the EC50 turn out when `COC(=O)Nc1ccc(-c2nnn(C)c2NC(=O)O[C@H](C)c2cccnc2Cl)cc1` [Compound 7, (R)-1-(2-chloropyridin-3-yl)ethyl (4-(4-((methoxycarbonyl)amino)phenyl)-1-methyl-1H-1,2,3-triazol-5-yl)carbamate] was run?
The EC50 was 315 nM.

Which EC50 does the source give for `C[C@@H](OC(=O)Nc1c(-c2cnc(NC(=O)C3(C#N)CC3)cn2)nnn1C)c1cccnc1Cl` [Compound 8, (R)-1-(2-chloropyridin-3-yl)ethyl (4-(5-(1-cyanocyclopropane-1-carboxamido)pyrazin-2-yl)-1-methyl-1H-1,2,3-triazol-5-yl)carbamate] here?
The EC50 was 154 nM.

How did the EC50 turn out when `CC(=O)Nc1cnc(-c2nnn(C)c2NC(=O)O[C@H](C)c2cccnc2Cl)c(F)c1` [Compound 9, (R)-1-(2-chloropyridin-3-yl)ethyl (4-(5-acetamido-3-fluoropyridin-2-yl)-1-methyl-1H-1,2,3-triazol-5-yl)carbamate] was run?
The EC50 was 2700 nM.

Which EC50 does the source give for `CC(=O)Nc1cnc(-c2nnn(C)c2NC(=O)O[C@H](C)c2cccnc2Cl)cc1F` [Compound 10, (R)-1-(2-chloropyridin-3-yl)ethyl (4-(5-acetamido-4-fluoropyridin-2-yl)-1-methyl-1H-1,2,3-triazol-5-yl)carbamate] here?
Its EC50 is 1020 nM.

How did the EC50 turn out when `C[C@@H](OC(=O)Nc1c(-c2ccc(NC(=O)OC(C)(C)C)cn2)nnn1C)c1cccnc1Cl` [Compound 11, (R)-1-(2-chloropyridin-3-yl)ethyl (4-(5-((tert-butoxycarbonyl)amino)pyridin-2-yl)-1-methyl-1H-1,2,3-triazol-5-yl)carbamate] was run?
Its EC50 is 731 nM.

`CC(OC(=O)Nc1c(-c2ccc(NC(=O)C(F)(F)F)cn2)nnn1C)c1cc(Br)cnc1F` (stereo not shown) [Compound 12, 1-(5-bromo-2-fluoropyridin-3-yl)ethyl (1-methyl-4-(5-(2,2,2-trifluoroacetamido)pyridin-2-yl)-1H-1,2,3-triazol-5-yl)carbamate] was tested. Which EC50 did it give?
Its EC50 is 541 nM.

`CC(OC(=O)Nc1c(-c2ccc(NC(=O)C(F)(F)F)cn2)nnn1C)c1cc(Br)cnc1Cl` (stereo not shown) [Compound 13, 1-(5-bromo-2-chloropyridin-3-yl)ethyl (1-methyl-4-(5-(2,2,2-trifluoroacetamido)pyridin-2-yl)-1H-1,2,3-triazol-5-yl)carbamate] was tested. Which EC50 did it give?
Its EC50 is 148 nM.

Which EC50 does the source give for `CC(=O)Nc1ccc(-c2nnn(C)c2NC(=O)O[C@H](C)c2cc(Cl)cnc2F)nc1` [Compound 14, (R)-1-(5-chloro-2-fluoropyridin-3-yl)ethyl (4-(5-acetamidopyridin-2-yl)-1-methyl-1H-1,2,3-triazol-5-yl)carbamate] here?
Its EC50 is 1200 nM.

How did the EC50 turn out when `CC(=O)Nc1ccc(-c2nnn(C)c2NC(=O)O[C@H](C)c2cc(F)cnc2Cl)nc1` [Compound 15, (R)-1-(2-chloro-5-fluoropyridin-3-yl)ethyl (4-(5-acetamidopyridin-2-yl)-1-methyl-1H-1,2,3-triazol-5-yl)carbamate] was run?
Its EC50 is 452 nM.
